In brackets after ≈: the same amount, converted by molar mass.
Legend:
[1] = Kinetic solubility analysis (CLND: total chemiluminescent nitrogen determination); settings: 1.0% DMSO, 24-hour incubation at ambient temperature, maximum theoretical concentration 100 μM; for pH 2 solubility: 0.1N HCl; for pH 7 solubility: 1×PBS buffer (pH 7.4)
physchem = settings: 25 °C, fassif, thermodynamic from solid
[2] = Solubility in simulated intestinal fluids (FaSSIF / FeSSIF); settings: 25 °C, thermodynamic from solid
[3] = Oral bioavailability PK in dog; assay type: in vivo; settings: Beagle dog, oral gavage, solution vehicle 5% ethanol, 20% propylene glycol, 75% water; based on observed exposure of Intermediate 5 in plasma
[4] = fasted state simulated intestinal fluid (FaSSIF), fassif
[5] = fed state simulated intestinal fluid (FeSSIF), fessif

| solubility [2, 4] | solubility [2, 5] | Dog F % (solution) [3] | Compound | pH 2 solubility [1] | pH 7 solubility [1] | solubility (physchem) |
| --- | --- | --- | --- | --- | --- | --- |
| 861 µg/mL (≈ 652 µM) | 1710 µg/mL (≈ 1290 µM) |  | CC(C)(C#Cc1ccc(-c2ccc(Cl)c3c(N(C(=O)N4CCC[C@H]4CN(CCC(=O)O)C(=O)OCOP(=O)(O)O)S(C)(=O)=O)nn(CC(F)(F)F)c23)c([C@H](Cc2cc(F)cc(F)c2)NC(=O)Cn2nc(C(F)(F)F)c3c2C(F)(F)[C@@H]2C[C@H]32)n1)S(C)(=O)=O [Compound 34, 3-((((S)-1-((4-chloro-7-(2-((S)-1-(2-((3bS,4aR)-5,5-difluoro-3-(trifluoromethyl)-3b,4,4a,5-tetrahydro-1H-cyclopropa[3,4]cyclopenta[1,2-c]pyrazol-1-yl)acetamido)-2-(3,5-difluorophenyl)ethyl)-6-(3-methyl-3-(methylsulfonyl)but-1-yn-1-yl)pyridin-3-yl)-1-(2,2,2-trifluoroethyl)-1H-indazol-3-yl)(methylsulfonyl)carbamoyl)pyrrolidin-2-yl)methyl)(((phosphonooxy)methoxy)carbonyl)amino)propanoic acid] | 1 μM | 100 μM |  |
| > 7400 µg/mL | > 5930 µg/mL |  | CC(C)(C#Cc1ccc(-c2ccc(Cl)c3c(N(C(=O)N4CC[C@@H]4CN(CC(=O)O)C(=O)OCOP(=O)(O)O)S(C)(=O)=O)nn(CC(F)(F)F)c23)c([C@H](Cc2cc(F)cc(F)c2)NC(=O)Cn2nc(C(F)(F)F)c3c2C(F)(F)[C@@H]2C[C@H]32)n1)S(C)(=O)=O [Compound 36, N—(((R)-1-((4-chloro-7-(2-((S)-1-(2-((3bS,4aR)-5,5-difluoro-3-(trifluoromethyl)-3b,4,4a,5-tetrahydro-1H-cyclopropa[3,4]cyclopenta[1,2-c]pyrazol-1-yl)acetamido)-2-(3,5-difluorophenyl)ethyl)-6-(3-methyl-3-(methylsulfonyl)but-1-yn-1-yl)pyridin-3-yl)-1-(2,2,2-trifluoroethyl)-1H-indazol-3-yl)(methylsulfonyl)carbamoyl)azetidin-2-yl)methyl)-N-(((phosphonooxy)methoxy)carbonyl)glycine] | 1 μM | 100 μM |  |
| 6200 µg/mL (≈ 4690 µM) | > 8370 µg/mL |  | CC(C)(C#Cc1ccc(-c2ccc(Cl)c3c(N(C(=O)N4CCOC[C@@H]4CN(CC(=O)O)C(=O)OCOP(=O)(O)O)S(C)(=O)=O)nn(CC(F)(F)F)c23)c([C@H](Cc2cc(F)cc(F)c2)NC(=O)Cn2nc(C(F)(F)F)c3c2C(F)(F)[C@@H]2C[C@H]32)n1)S(C)(=O)=O [Compound 37, N—(((S)-4-((4-chloro-7-(2-((S)-1-(2-((3bS,4aR)-5,5-difluoro-3-(trifluoromethyl)-3b,4,4a,5-tetrahydro-1H-cyclopropa[3,4]cyclopenta[1,2-c]pyrazol-1-yl)acetamido)-2-(3,5-difluorophenyl)ethyl)-6-(3-methyl-3-(methylsulfonyl)but-1-yn-1-yl)pyridin-3-yl)-1-(2,2,2-trifluoroethyl)-1H-indazol-3-yl)(methylsulfonyl)carbamoyl)morpholin-3-yl)methyl)-N-(((phosphonooxy)methoxy)carbonyl)glycine] | 2 μM | 100 μM |  |
|  |  | 16% | CC(C)(C#Cc1ccc(-c2ccc(Cl)c3c(NS(C)(=O)=O)nn(CC(F)(F)F)c23)c([C@H](Cc2cc(F)cc(F)c2)NC(=O)Cn2nc(C(F)(F)F)c3c2C(F)(F)[C@@H]2C[C@H]32)n1)S(C)(=O)=O [Intermediate 5, N—((S)-1-(3-(4-chloro-3-(methylsulfonamido)-1-(2,2,2-trifluoroethyl)-1H-indazol-7-yl)-6-(3-methyl-3-(methylsulfonyl)but-1-yn-1-yl)pyridin-2-yl)-2-(3,5-difluorophenyl)ethyl)-2-((3bS,4aR)-5,5-difluoro-3-(trifluoromethyl)-3b,4,4a,5-tetrahydro-1H-cyclopropa[3,4]cyclopenta[1,2-c]pyrazol-1-yl)acetamide, reference compound] | 0.11 μM | 0.32 μM |  |

The next lines start with the compound.

| Compound | solubility [2, 4] | solubility [2, 5] | Dog F % (solution) [3] | pH 2 solubility [1] | pH 7 solubility [1] | solubility (physchem) |
| --- | --- | --- | --- | --- | --- | --- |
| CC(C)(C#Cc1ccc(-c2ccc(Cl)c3c(N(C(=O)[C@H]4C[C@H]4C(=O)OCOP(=O)(O)O)S(C)(=O)=O)nn(CC(F)(F)F)c23)c([C@H](Cc2cc(F)cc(F)c2)NC(=O)Cn2nc(C(F)(F)F)c3c2C(F)(F)[C@@H]2C[C@H]32)n1)S(C)(=O)=O [Compound 12, (phosphonooxy)methyl (1R,2S)-2-((4-chloro-7-(2-((S)-1-(2-((3bS,4aR)-5,5-difluoro-3-(trifluoromethyl)-3b,4,4a,5-tetrahydro-1H-cyclopropa[3,4]cyclopenta[1,2-c]pyrazol-1-yl)acetamido)-2-(3,5-difluorophenyl)ethyl)-6-(3-methyl-3-(methylsulfonyl)but-1-yn-1-yl)pyridin-3-yl)-1-(2,2,2-trifluoroethyl)-1H-indazol-3-yl)(methylsulfonyl)carbamoyl)cyclopropane-1-carboxylate] |  |  |  | 1 μM | 71 μM | 2100 µg/mL (≈ 1760 µM) |
| CC(C)(C#Cc1ccc(-c2ccc(Cl)c3c(N(C(=O)[C@H]4C[C@H](C(=O)O)C4)S(C)(=O)=O)nn(CC(F)(F)F)c23)c([C@H](Cc2cc(F)cc(F)c2)NC(=O)Cn2nc(C(F)(F)F)c3c2C(F)(F)[C@@H]2C[C@H]32)n1)S(C)(=O)=O [Compound 13, (1S,3r)-3-((4-chloro-7-(2-((S)-1-(2-((3bS,4aR)-5,5-difluoro-3-(trifluoromethyl)-3b,4,4a,5-tetrahydro-1H-cyclopropa[3,4]cyclopenta[1,2-c]pyrazol-1-yl)acetamido)-2-(3,5-difluorophenyl)ethyl)-6-(3-methyl-3-(methylsulfonyl)but-1-yn-1-yl)pyridin-3-yl)-1-(2,2,2-trifluoroethyl)-1H-indazol-3-yl)(methylsulfonyl)carbamoyl)cyclobutane-1-carboxylic acid] |  |  |  | 1 μM | 15 μM | 9 µg/mL (≈ 8.22 µM) |
| CC(C)(C#Cc1ccc(-c2ccc(Cl)c3c(N(C(=O)[C@H]4C[C@@H](C(=O)O)C4)S(C)(=O)=O)nn(CC(F)(F)F)c23)c([C@H](Cc2cc(F)cc(F)c2)NC(=O)Cn2nc(C(F)(F)F)c3c2C(F)(F)[C@@H]2C[C@H]32)n1)S(C)(=O)=O [Compound 14, ((1R,3s)-3-((4-chloro-7-(2-((S)-1-(2-((3bS,4aR)-5,5-difluoro-3-(trifluoromethyl)-3b,4,4a,5-tetrahydro-1H-cyclopropa[3,4]cyclopenta[1,2-c]pyrazol-1-yl)acetamido)-2-(3,5-difluorophenyl)ethyl)-6-(3-methyl-3-(methylsulfonyl)but-1-yn-1-yl)pyridin-3-yl)-1-(2,2,2-trifluoroethyl)-1H-indazol-3-yl)(methylsulfonyl)carbamoyl)cyclobutane-1-carboxylic acid)] |  |  |  | 1 μM | 8 μM | 9 µg/mL (≈ 8.22 µM) |
| CC(C)(C#Cc1ccc(-c2ccc(Cl)c3c(N(C(=O)N4CCC[C@H]4C(=O)OCOP(=O)(O)O)S(C)(=O)=O)nn(CC(F)(F)F)c23)c([C@H](Cc2cc(F)cc(F)c2)NC(=O)Cn2nc(C(F)(F)F)c3c2C(F)(F)[C@@H]2C[C@H]32)n1)S(C)(=O)=O [Compound 27, (phosphonooxy)methyl ((4-chloro-7-(2-((S)-1-(2-((3bS,4aR)-5,5-difluoro-3-(trifluoromethyl)-3b,4,4a,5-tetrahydro-1H-cyclopropa[3,4]cyclopenta[1,2-c]pyrazol-1-yl)acetamido)-2-(3,5-difluorophenyl)ethyl)-6-(3-methyl-3-(methylsulfonyl)but-1-yn-1-yl)pyridin-3-yl)-1-(2,2,2-trifluoroethyl)-1H-indazol-3-yl)(methylsulfonyl)carbamoyl)-L-prolinate] |  |  |  | 2 μM | 68 μM | 512 µg/mL (≈ 420 µM) |
